From article PMC11024854 (Theranostics, 2024)

How the values were obtained:
HSP90α = biological target: T1, HSP90α (Homo sapiens, UniProt P07900); assay: competitive binding assay against FITC-labeled geldanamycin ([…] compound)
T1 construct: gene HSP90AA1; purified recombinant HSP90α (N-terminal domain assay kit)

HSP90α (HSP90AA1) = biological target: T2, HSP90α (HSP90AA1) (Homo sapiens, UniProt P07900); assay: SPR (Biacore […], immobilized HSP90AA1); also C-terminal HSP90α:PPID AlphaLISA inhibition at […]; format: binding
T2 construct: recombinant human HSP90AA1 protein

SMILES: CC(C)c1cc(C(=O)N2Cc3ccc(CN4CCN(C)CC4)cc3C2)c(O)cc1O [onalespib]
- competitive binding assay against FITC-labeled geldanamycin (1000 nM compound) (HSP90α): unlike the N-terminal HSP90 inhibitors, neither HVH-2930 nor novobiocin exhibited any binding activity to the N-terminal region of HSP90α

SMILES: COc1c(C(=O)Nc2ccc3c(C)nn(CCC4CCN(C)CC4)c3c2)ccc2c1C=CC(C)(C)O2 [HVH-2930]
- Kd (HSP90α (HSP90AA1)): 97.2 µM
